Reference: patent publication US20240245762A1, “METHODS AND PLATFORMS FOR PROMOTING ANTIGEN-SPECIFIC TOLERANCE IN THE TREATMENT OF TYPE 1 DIABETES AND GRAFT REJECTION AND COMPOSITIONS RELATING THERETO” (University of Maryland, College Park, priority 2021, published 2024)

Tested on: Eα presentation in MHC-II
Assay: Immunohistochemistry of Eα presentation in MHC-II (Y-ae) around HEVs of LNs
Format: in vivo, mouse
Settings: three daily i.p. injections starting on the day of MP treatment
Description: Immunohistochemistry and histology. The following antibodies were used for immunohistochemistry: ERTR7 (clone sc-73355), CD11c (cloneHL3), Laminin alpha4 (clone 775830), laminin alpha 5 (polyclonal), Foxp3 (clone NRRF-30), Vα2 TCR (clone B20.1). For immunohistochemistry, LNs and spleens were frozen with OCT compound (Scigen Tissue-Plus, Gardena, CA). Frozen sections were cut at 6 μm, fixed with cold acetone, blocked with 5% goat or donkey serum (Jackson ImmunoResearch, West Grove, PA) and incubated with the indicated antibodies and DAPI. […] Images were acquired with a Nikon Eclipse 700 (Nikon, Melville, NY, USA) and analyzed with Volocity image analysis software (Perkin Elmer, Waltham, MA). The positive staining area percentage was quantified based on at least three independent experiments with 3 sections per LN and 3-5 fields/section.
Subsequently, we directly investigated the trafficking and presentation of antigen from MPs in […] LNs using Y-ae, a recently-developed antibody tool. […] At 2 days, Eα presentation localized with HEVs was detected in treated LNs (FIG. 12f), and increased by day 6 (FIG. 12g). […]

CCCCCCCCc1ccc(CCC(N)(CO)CO)cc1 [FTY720]
effect on Eα presentation after Eα MP or Eα/rapamycin MP treatment: did not significantly affect Eα presentation
